Laboratory results reported in ChEMBL document CHEMBL4190369, “Indolinone Inhibitors of ENT1 for the Treatment of Schizophrenia” (ACS Med Chem Lett, 2017).

Each compound was assayed on Mus musculus (assay: Anti-schizophrenic activity in mouse assessed inhibition of L-687414-induced hyperlocomotion at 30 mg/kg, ip pretreated for 15 mins followed by L-687414 addition measured at 5 mins interval for 30 mins relative to control).
Type: functional

| Compound | inhibition in vivo at 30 mg/kg [%] |
| --- | --- |
| Cc1ncc(-c2ccc3c(c2)N(c2cnc(-n4ccnc4C)cn2)C(=O)C3(C)C)cn1 | 96.3 |
| Cc1ncc(-c2ccc3c(c2)N(c2cncc(N4CCCC4=O)n2)C(=O)C3(C)C)cn1 | 87.8 |
| Cc1ncc(-c2ccc3c(c2)N(c2ccc4c(n2)N(C)C(=O)C4(C)C)C(=O)C3(C)C)cn1 | 99.5 |
| Cc1ncc(-c2ccc3c(c2)N(c2cnc(C)c(N4CCOC4=O)n2)C(=O)C3(C)C)cn1 | 89.7 |
| Cc1ncc(-c2ccc3c(c2)N(c2cncc(N4CCOCC4)n2)C(=O)C3(C)C)cn1 | 90 |
| Cc1ncc(-c2ccc3c(c2)N(c2ccc4c(c2)N(C)C(=O)CO4)C(=O)C3(C)C)cn1 | 93.8 |
| Cc1ncc(-c2ccc3c(c2)N(c2cncc(N4CCOC4=O)n2)C(=O)C3(C)C)cn1 | 87.1 |
| Cc1ncc(-c2ccc3c(c2)N(c2cnc4c(c2)C(C)(C)C(=O)N4C)C(=O)C3(C)C)cn1 | 93.5 |
| Cc1ncc(-c2ccc3c(c2)N(c2cnc(C)c(N4CCOCC4)n2)C(=O)C3(C)C)cn1 | 88.8 |
